Test results from patent US20240299400A1, “Transcription Factor GLI1 Inhibitors and Uses Thereof” (University of Connecticut, priority 2023, published 2024).

Legend:
GLI1 protein levels = experiment: Western blot GLI1 protein expression in ASZ001 cells; format: cell-based, murine; conditions: 10 and 25 μM
Method: (§1) ASZ001 cells were plated as described above and treated with drugs or vehicle control. Following incubation, cells were washed with chilled PBS and lysed with RIPA buffer containing […] PMSF protease inhibitor (Thermo Scientific #26978). Supernatant was collected following 15 min centrifugation at 12,000 rpm and 4° C. Protein concentrations from cell extracts were determined through the BCA kit (Pierce #23228) per the manufacturer's instructions. Proteins from either cell lysate or cell-free biochemical assay were then loaded on 12% SDS-PAGE. Following electrophoresis, proteins were transferred onto nitrocellulose membrane at 100 V for 120 min at 4° C. On a clean tray with constant gentle shaking, the membrane was sequentially submerged in 5% BSA for 1 h, and incubated with the primary antibody indicated overnight at 4° C. After washes with TBST, the appropriate secondary antibody was added to the tray for a 2 h incubation at RT. Chemiluminescent detection on film was visualized using ECL reagents (BioRad #1705060) and subsequently quantitated using Image J (http://imagej.nih.gov). Primary antibodies were used at 1:2000 dilution and are as follows: GLI1 (#MA5-32553); Gli2 (#PA5-79314); β-Actin (#PA1-16889). Secondary antibody (Goat anti-Rabbit, #32460) was used at a 1:5000 dilution. All antibodies were purchased from Invitrogen.

GLI2 protein expression = experiment: Western blot GLI2 protein expression in ASZ001 cells; format: cell-based, murine; conditions: 25 μM
Method: as §1

Row | SMILES | GLI1 protein levels (in words) (GLI1 protein levels) | GLI2 protein expression (in words) (GLI2 protein expression)
1 | Cc1ccc2ccc(C(Nc3ccccn3)c3ccncc3)c(O)c2n1 (stereo not shown) [Compound 39, 7-((Pyridin-4-yl)(pyridin-2-ylamino)methyl)-2-methylquinolin-8-ol] | significantly reduced | significantly suppressed
2 | Cc1ccc2ccc(C(Nc3ccccn3)c3ccc(N4CCCC4=O)cc3)c(O)c2n1 (stereo not shown) [Compound 48, 7-((4-(2-Oxopyrrolidin-1-yl)phenyl)(pyridin-2-ylamino)methyl)-2-methylquinolin-8-ol] | significantly reduced | significantly suppressed
